Results on 3 compounds are retold here after patent publication US20110021565A1, “PIPERIDINE DERIVATIVES AS NK3 ANTAGONISTS” (priority 2007, published 2011).

Experiment [1] deals with symptoms of schizophrenia. The note with it: phase II trial, cited from earlier work.
Experiment [2] concerns the target T1, recombinant human NK3 receptor (Homo sapiens, UniProt P29371).
T1 construct: expressed in transfected cells; host or cells: HEK293 cells, transient expression; membrane preparation
T1 sequence (P29371 1-465): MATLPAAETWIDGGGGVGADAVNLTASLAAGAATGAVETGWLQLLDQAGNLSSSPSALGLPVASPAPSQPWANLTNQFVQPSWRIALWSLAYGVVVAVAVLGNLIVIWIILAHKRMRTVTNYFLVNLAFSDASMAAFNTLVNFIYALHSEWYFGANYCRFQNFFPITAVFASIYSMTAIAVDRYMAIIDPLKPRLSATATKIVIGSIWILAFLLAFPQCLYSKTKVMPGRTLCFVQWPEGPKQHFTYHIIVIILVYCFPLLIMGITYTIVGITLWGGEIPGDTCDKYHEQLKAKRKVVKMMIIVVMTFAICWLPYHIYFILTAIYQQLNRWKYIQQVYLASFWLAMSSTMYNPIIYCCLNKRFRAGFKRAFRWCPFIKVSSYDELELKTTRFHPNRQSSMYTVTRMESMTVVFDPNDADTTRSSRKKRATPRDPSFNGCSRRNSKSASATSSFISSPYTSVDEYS
In words: [3H]SR142801 competition binding assay. The gist of the method:
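Ki derived by Cheng-Prusoff from Hill-fitted IC50 curves, duplicates, 10 μM SB222200 defining nonspecific binding. Radioligand used at KD concentration against compound at 0.0003-10 μM; transiently transfected HEK293 membranes, 5 μg/well, 75 min room temperature, Tris-HCl/MnCl2/phosphoramidon/BSA pH 7.4. Filter-bound counts read by scintillation.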

[3] abbreviates: [3H]SR142801, membranes of HEK293 cells transiently expressing recombinant human NK3 receptor, read-out: hNK3 Ki.

Like-named read-outs stand apart in the source and are kept apart here.

On to `CC(=O)N(C)C1(c2ccccc2)CCN(CCC[C@]2(c3ccc(Cl)c(Cl)c3)CCCN(C(=O)c3ccccc3)C2)CC1` [SR 142,801, Osanetant], for which, in experiment [1] (altered behaviour, delusion, hallucinations, extreme emotions, excited motor activity, incoherent speech), the “activity on positive symptoms of schizophrenia” value was “active on positive symptoms of schizophrenia”. For the same compound, the “activity on negative symptoms of schizophrenia” value in experiment [1] (depression, anhedonia, social isolation, memory and attention deficits) is “inactive in the treatment of negative symptoms”.
As a reminder, the Ki is the dissociation constant of the complex between target and ligand, obtained from inhibition or displacement. As to `CC(=O)N(C1CC1)C1CCN(CCC(C)(C(=O)N[C@H](CO)c2ccc(F)cc2)c2ccc(Cl)c(Cl)c2)CC1` (single isomer, unassigned; diastereoisomer 2) [Example 141, 4-[4-(Acetyl-cyclopropyl-amino)-piperidin-1-yl]-2-(3,4-dichloro-phenyl)-N-[1-(4-fluoro-phenyl)-2-hydroxy-ethyl]-2-methyl-butyramide (diastereoisomer 2)], in experiment [2] (setting [3]), the Ki was found to be 165 nM.
`CN(Cc1ccc(C(F)(F)F)c(F)c1)C(=O)C(C)(CCN1CCC(N2CCCC2=O)CC1)c1ccc(Cl)c(Cl)c1` (centres unmarked) [Example 81, 2-(3,4-Dichloro-phenyl)-N-(3-fluoro-4-trifluoromethyl-benzyl)-2,N-dimethyl-4-[4-(2-oxo-pyrrolidin-1-yl)-piperidin-1-yl]-butyramide]: the Ki in experiment [2] (setting [3]) stood at 3 nM; in experiment [2] (representative compounds, [3H]SR142801, HEK293 membranes, human NK3 receptor, read-out: Ki NK3 h), 3 nM.
